Test results from patent US20030017520A1, “High-efficiency assay for protein mannosyl transferases” (priority 2001, published 2003).
“And” between values parts separate entries of the source, which are not always exact repeats. Equal entries are not always repeated. “Also recorded” adds a separate entry of the source.

Experiments:
[1] = test system: protein mannosyl transferases (PMTs), crude enzyme; experiment: LUV-based (UPV) PMT activity assay: transfer of [3H]-mannose from Dol-P-Man to acceptor peptide; assay type: biochemical, S. cervisiae; conditions: for inhibition of the PMT enzyme by divalent cation chelator: LUV assay conditions (FIG. 7B)
Method: The assays using the UPV method contained 20 mM Tris-HCl, pH 7.5, 10 mM MgCl2, 2.5 mM of the peptide, YNPTSV, 1.5 μl Dol-P-[^3H]-Man (approximately 0.9×10^6 cpm) “solubilized” in 100 μg POPC LUV's and 8 μg of crude enzyme (see Example 2) in a final volume of 40 μl. The assay samples were incubated for 2-30 minutes (varied per individual experiments) at 20° C. and at the end of the incubation the reaction was stopped by the addition of 10 μl 50 mM CuSO4 or 1 ml 0.1% TFA.
Assay reaction products were isolated on C18 cartridges (1 cc/100 mg Bond Elut) obtained from Varian [Homa et al. Prot. Exp. Purif., 6:141-48; 1995]. Isolation of reaction product by solvent extraction was carried out as described by Strahl-Bolsinger and Tanner [Eur. J. Biochem., 196:185-90; 1991].
As part of the characterization of the UPV PMT assay, other parameters such as the influence of detergents and ion dependence were also investigated. PMT assays (using LUVs as produced by the method in Example 3) were conducted by the methods of Example 5. Assays were performed at two concentrations of enzymes (5 and 10 μl). Buffers containing only CHAPS or CHAPS+50% glycerol were substituted for the standard Extraction Buffer used to solubilize the ezyme (see FIG. 6A). The effect of increased detergent concentration was investigated by the addition of increasing amounts of Extraction Buffer (see FIG. 6B).
Experiments were also conducted (as described immediately above) to determine whether PMTs are ion dependent. The control assay (10 mM Mg) contained LUVs made in buffer containing 10 mM MgCl2. All other assays contained LUVs prepared in buffer without MgCl2. […] Enzymol. Relat. Areas Mol. Biol., 52:23-175; 1981].

acceptor peptide YNPTSV = test system: T1, acceptor peptide YNPTSV
T1 sequence: YNPTSV

[2] = test system: protein mannosyl transferases (PMTs); conditions: detergent based assay; read-out: Km previously determined; cited from earlier work

Question: For `c1cnc2c(c1)ccc1cccnc12` [orthophenanthroline], which “inhibition of the PMT enzyme by divalent cation chelator” value (from here on “inhibition of the PMT enzyme”) [1] is on record?
Answer: equally ineffective

Question: Which “inhibition of the PMT enzyme” value [1] does the source give for `O=C(O)CN(CCOCCOCCN(CC(=O)O)CC(=O)O)CC(=O)O` [EGTA] here?
Answer: equally ineffective

Question: Which results are given for “protein mannosyl transferases (PMTs), crude detergent extract of S. cervisiae (strain BY4743) microsomal membranes”?
Answer: Vmax (LUV-based PMT enzyme activity assay, crude enzyme) (acceptor peptide YNPTSV): Vmax was determined to be approximately 7.25 pmol min.^-1 mg protein^-1; apparent Km (LUV-based PMT enzyme activity assay, crude enzyme) (acceptor peptide YNPTSV): the apparent Km (using crude enzyme preparation) was determined to be approximately 1 mM; apparent Km (LUV-based PMT enzyme activity assay, crude yeast microsomal lysate) (acceptor peptide YNPTSV): an apparent Km of 1.5 mM, for the acceptor peptide YNPTSV

Question: Which Km [2] does the source give for “YNPTSV (synthesized acceptor peptide) [standard synthetic acceptor peptide containing an acceptor site for PMTs]” here?
Answer: 3300 µM

Question: What about the Vmax ([1]; Dol-P-Man in POPC LUVs, crude enzyme preparation) of the same compound?
Answer: approximately 7.25 pmol min.^−1 mg protein^−1

Question: And the Km ([1]; Dol-P-Man in POPC LUVs, crude enzyme preparation (yeast microsomal lysate), read-out: apparent Km for the acceptor peptide)?
Answer: 1500 µM and ~1000 µM

Question: With `O=C(O)CN(CCN(CC(=O)O)CC(=O)O)CC(=O)O` [EDTA] as the compound, how does the “inhibition of the PMT enzyme” value [1] read?
Answer: does not inhibit the enzyme; also recorded: appears not to inhibit the enzyme
